{"source": "patent US10869846B2", "about": "“N-acetylcysteine amide (NAC amide) in the treatment of diseases and conditions associated with oxidative stress” (SENTIENT LIFESCIENCES, INC., priority 2005, dated 2020)", "key": {"Sprague Dawley rats": {"test_system": "Sprague Dawley rats", "test": "GSH and CYS levels in tissues after 6Gy total-body x-ray radiation", "assay_type": "in vivo, rat", "conditions": "for CYS level / GSH level / CYS Mean / GSH Mean: 6Gy total-body x-ray, 500 mg/kg orally; for CYS level / GSH level: individual animals; for CYS Mean / GSH Mean: n = 3", "method": "Animal studies: The irradiation of rats was performed at the Radiation Oncology Department of the Phelps County Regional Medical Center in Rolla, Mo., using a 16 MeV beam generated by a Varian linear accelerator, model Clinac 1800, and in accordance with the standards of humane laboratory animal protocols. A 20×20 or 25×25 cm field was used and output factors were checked once a week. Twelve animals were divided into 4 groups each containing 3 animals (Control, XRT, NAC amide+XRT and NAC+XRT). The radiation (XRT) control received whole body irradiation by 6 Gy of 16 MeV electrons. The NAC amide+XRT group received 500 mg/kg/day NAC amide immediately before irradiation and for three days after until sacrifice. The rats were anesthetized and heparinized blood was collected via cardiopuncture. Following sacrifice, liver, lung, brain and spleen were removed and stored at −70° C. until homogenization.\nAll experiments were performed using adult Albino SASCO Sprague Dawley female rats weighing about 250 g, which were purchased from Charles River Laboratories Inc. (Portage, Mich.). Twelve rats were shipped in paper crates (4 in each crate). Rats were delivered with a certificate including serological, bacteriological, pathological parasitological information. They were divided into 4 cages (3 rats in each cage) and kept in a temperature controlled (20° C.) room equipped to maintain a 12 h light-dark cycle. Standard rat chow (Purina rat chow) and tap water were supplied in individual glass bottle and given ad libitum. Water was changed daily. Weights of the animal were taken before giving the NAC amide treatment solution and amount of food eaten and water consumed was not measured because NAC amide was given orally but not in the drinking water or food.\nNAC amide was provided by Novetide Ltd (Haifa Bay, Israel) including certificate of analysis and MSDS (lot #40233-64). NAC amide feeding solution was prepared freshly each day right before the administration by weighing 1.25 g NAC amide solid sample (Type HR-120 electronic balance, A&D Company limited, Japan. S/N: 12202464) and adding into 10 ml PBS solution and put on ice. One ml of this solution was administrated (gavaged) per rat orally by using animal feeding biomedical needles and 3 ml BD Luer-Lok Tip syringes. Rats received one-dose total-body 6 Gy/16 MeV x-ray radiation and 3 rats in each group were held in a covered bucket and received radiation at the same time. Each day at the same time, 500 mg/Kg body weight of NAC amide was administrated to the animals.\nFor GSH and CYS levels, 250 μL tissue homogenate was used to react with 750 μL NPM solution, therefore, the total volume was 1000 μL.\nOxidative Stress Parameters in Animals: After the blood samples were drawn, the animals were perfused by a cold antioxidant buffer first and then liver, brain and kidney samples were collected aseptically, rinsed in ice-cold saline and placed in petri dishes maintained on ice. The tissue samples kept at −70° C. for the GSH, GSSG, and MDA determinations were made.\nGlutathione (GSH) and Glutathione Disulfide (GSSG) Determination: Cells or tissue samples were homogenized on ice and derivatized with N-(1-pyrenyl)-maleimide (NPM). The derivatized samples were injected onto a 3 μm C18 column (Column Engineering) in a reverse phase HPLC system with a mobile phase of 35% water, 65% acetonitrile containing 1 mL/L of acetic acid and o-phosphoric acid (R. Winters, et al., Anal. Biochem., 227:14-21 (1995) and H. H. Draper et al., Free Rad. Biol. Med., 15:353-363 (1993)). Malondialdehyde (MDA) determinations were made as described in J. Gutteridge, Anal. Biochem., 69: 518-526 (1975)."}, "PC12 cells": {"test_system": "PC12 cells", "test": "MDA measurement in glutamate-exposed cells", "assay_type": "cell-based", "conditions": "24 h", "method": "MDA measurement: To prepare the solution, 350 μl of straight cell homogenate, 100 μl of 500 ppm BHT (butylated hydroxytoluene), and 550 μl of 10% TCA (trichloroacetic acid) were combined and boiled for 30 min. The tubes were cooled on ice and centrifuged for 10 min at 2500 rpm. Five hundred (500) μl of the supernatant were removed and 500 μl of TBA (thiobarbituric acid) were added. The tubes were boiled again for 30 min, and then cooled on ice. From this solution, 500 μl were removed, added to 1.0 ml of n-butanol, vortexed, and centrifuged for 5 min at 60 g to facilitate a phase separation. The top layer was then filtered through 0.45 μm filters and injected onto a 5 μm C18 column (250×4.6 mm) on a reverse phase HPLC system. The mobile phase consisted of 69.4% 5 mM sodium phosphate buffer (pH=7.0), 30% acetonitrile, and 0.6% THF (tetrahydrofuran). The excitation wavelength was 515 nm; the emission wavelength was 550 nm (Draper H. H. et al., Free Radic Biol Med., 15(4):353-63, 1993).\nCells were plated and grown for 24 hours, and then they were exposed to glutamate (10 mM) in the presence or absence of NAC amide (750 μM). Twenty-four hours later, the cells were harvested and malondialdehyde levels were measured. Values represent means.+−.SD. Statistically different values of *P<0.002 and **P<0.05 were determined, compared to control. ***P<0.05 compared to glutamate-treated group."}, "[1]": {"conditions": "BRAIN, listed as AD4, 500 mg/kg"}, "[2]": {"conditions": "KIDNEY, listed as AD4, 500 mg/kg"}, "[3]": {"conditions": "LIVER, listed as AD4, 500 mg/kg"}, "[4]": {"conditions": "PLASMA, listed as AD4, 500 mg/kg"}}, "note": "Several values for one entry are separate records, joined by “and”; a condition that tells them apart may be missing. Equal entries are not always repeated. Marks after values point to notes of the source that are not given here."}
{"molecule": "CC(=O)N[C@@H](CS)C(=O)O", "note": "[NAC, N-acetylcysteine]", "values": [{"measurement": "CYS level", "setting": "Sprague Dawley rats; BRAIN, 500 mg/kg", "value": "4.16 nmol/mg and 3.76 nmol/mg and 4.47 nmol/mg"}, {"measurement": "GSH level", "setting": "Sprague Dawley rats; BRAIN, 500 mg/kg", "value": "7.32 nmol/mg and 6.74 nmol/mg and 7.15 nmol/mg"}, {"measurement": "CYS Mean", "setting": "Sprague Dawley rats; BRAIN", "value": 4.1, "unit": "nmol/mg"}, {"measurement": "GSH Mean", "setting": "Sprague Dawley rats; BRAIN", "value": 7.0, "unit": "nmol/mg"}, {"measurement": "CYS level", "setting": "Sprague Dawley rats; KIDNEY, 500 mg/kg", "value": "12.23 nmol/mg and 12.16 nmol/mg and 11.03 nmol/mg"}, {"measurement": "GSH level", "setting": "Sprague Dawley rats; KIDNEY, 500 mg/kg", "value": "5.95 nmol/mg and 6.44 nmol/mg and 6.33 nmol/mg"}, {"measurement": "CYS Mean", "setting": "Sprague Dawley rats; KIDNEY", "value": "11.8** nmol/mg"}, {"measurement": "GSH Mean", "setting": "Sprague Dawley rats; KIDNEY", "value": "6.2** nmol/mg"}, {"measurement": "CYS level", "setting": "Sprague Dawley rats; LIVER, 500 mg/kg", "value": "1.25 nmol/mg and 1.61 nmol/mg and 1.51 nmol/mg"}, {"measurement": "GSH level", "setting": "Sprague Dawley rats; LIVER, 500 mg/kg", "value": "15.23 nmol/mg and 16.80 nmol/mg and 16.93 nmol/mg"}, {"measurement": "CYS Mean", "setting": "Sprague Dawley rats; LIVER", "value": 1.5, "unit": "nmol/mg"}, {"measurement": "GSH Mean", "setting": "Sprague Dawley rats; LIVER", "value": 16.3, "unit": "nmol/mg"}, {"measurement": "CYS level", "setting": "Sprague Dawley rats; LUNG, 500 mg/kg", "value": "1.16 nmol/mg and 2.64 nmol/mg and 2.43 nmol/mg"}, {"measurement": "GSH level", "setting": "Sprague Dawley rats; LUNG, 500 mg/kg", "value": "5.19 nmol/mg and 7.24 nmol/mg and 4.95 nmol/mg"}, {"measurement": "CYS Mean", "setting": "Sprague Dawley rats; LUNG", "value": 1.9, "unit": "nmol/mg"}, {"measurement": "GSH Mean", "setting": "Sprague Dawley rats; LUNG", "value": 5.8, "unit": "nmol/mg"}, {"measurement": "CYS level", "setting": "Sprague Dawley rats; PLASMA, 500 mg/kg", "value": "14.64 nmol/mg and 13.75 nmol/mg and 14.36 nmol/mg"}, {"measurement": "GSH level", "setting": "Sprague Dawley rats; PLASMA, 500 mg/kg", "value": "7.08 nmol/mg and 6.18 nmol/mg and 6.27 nmol/mg"}, {"measurement": "CYS Mean", "setting": "Sprague Dawley rats; PLASMA", "value": "14.2*** nmol/mg"}, {"measurement": "GSH Mean", "setting": "Sprague Dawley rats; PLASMA", "value": "6.5**/*** nmol/mg"}, {"measurement": "GSH levels in tissues", "setting": "Sprague Dawley rats; after radiation exposure", "value": "does not increase"}]}
{"molecule": "N-acetylcysteine amide [NAC amide]", "values": [{"measurement": "MDA Levels", "setting": "PC12 cells; GLU (10 mM) + NAC amide (750 μM)", "value": "88 ± 11", "unit": "nM/100 mg protein"}, {"measurement": "MDA Levels", "setting": "PC12 cells; NAC amide (750 μM) alone", "value": "81 ± 22", "unit": "nM/100 mg protein"}, {"measurement": "CYS level", "setting": "Sprague Dawley rats; [1]", "value": "4.47 nmol/mg and 4.32 nmol/mg and 4.26 nmol/mg"}, {"measurement": "GSH level", "setting": "Sprague Dawley rats; [1]", "value": "7.93 nmol/mg and 7.84 nmol/mg and 6.98 nmol/mg"}, {"measurement": "CYS Mean", "setting": "Sprague Dawley rats; BRAIN", "value": 4.4, "unit": "nmol/mg"}, {"measurement": "GSH Mean", "setting": "Sprague Dawley rats; BRAIN", "value": "7.6** nmol/mg"}, {"measurement": "CYS level", "setting": "Sprague Dawley rats; [2]", "value": "16.91 nmol/mg and 11.09 nmol/mg and 10.81 nmol/mg"}, {"measurement": "GSH level", "setting": "Sprague Dawley rats; [2]", "value": "4.39 nmol/mg and 6.22 nmol/mg and 5.02 nmol/mg"}, {"measurement": "CYS Mean", "setting": "Sprague Dawley rats; KIDNEY", "value": "12.9** nmol/mg"}, {"measurement": "GSH Mean", "setting": "Sprague Dawley rats; KIDNEY", "value": 5.2, "unit": "nmol/mg"}, {"measurement": "CYS level", "setting": "Sprague Dawley rats; [3]", "value": "1.51 nmol/mg and 1.53 nmol/mg (2×)"}, {"measurement": "GSH level", "setting": "Sprague Dawley rats; [3]", "value": "17.45 nmol/mg and 16.73 nmol/mg and 17.50 nmol/mg"}, {"measurement": "CYS Mean", "setting": "Sprague Dawley rats; LIVER", "value": 1.5, "unit": "nmol/mg"}, {"measurement": "GSH Mean", "setting": "Sprague Dawley rats; LIVER", "value": "17.2** nmol/mg"}, {"measurement": "CYS level", "setting": "Sprague Dawley rats; LUNG, listed as AD4, 500 mg/kg", "value": "1.43 nmol/mg and 1.61 nmol/mg and 0.91 nmol/mg"}, {"measurement": "GSH level", "setting": "Sprague Dawley rats; LUNG, listed as AD4, 500 mg/kg", "value": "5.12 nmol/mg and 5.27 nmol/mg and 6.28 nmol/mg"}, {"measurement": "CYS Mean", "setting": "Sprague Dawley rats; LUNG", "value": 1.3, "unit": "nmol/mg"}, {"measurement": "GSH Mean", "setting": "Sprague Dawley rats; LUNG", "value": 5.6, "unit": "nmol/mg"}, {"measurement": "CYS level", "setting": "Sprague Dawley rats; [4]", "value": "16.00 nmol/mg and 15.45 nmol/mg and 15.40 nmol/mg"}, {"measurement": "GSH level", "setting": "Sprague Dawley rats; [4]", "value": "7.10 nmol/mg and 7.44 nmol/mg and 7.94 nmol/mg"}, {"measurement": "CYS Mean", "setting": "Sprague Dawley rats; PLASMA", "value": "15.6** nmol/mg"}, {"measurement": "GSH Mean", "setting": "Sprague Dawley rats; PLASMA", "value": "7.6** nmol/mg"}, {"measurement": "thiol levels in plasma and liver", "setting": "Sprague Dawley rats; after radiation exposure", "value": "significantly increases"}]}
